# Patent US7241863B2, “Human metabotropic glutamate receptor” (NPS Pharmaceuticals, Inc., priority 2003, dated 2007)
# How the values were obtained:
# Format in all cases: cell-based
# human mGluR5d receptor = molecular target: T1, human mGluR5d receptor (Homo sapiens, UniProt P41594); experiment: Xenopus oocyte expression assay, calcium-activated chloride current; conditions: for desensitization of evoked calcium-activated chloride currents: repeated application of 10-100 μM, Xenopus oocytes expressing hmGluR5d
# T1 construct: expressed in transfected cells; host or cells: Xenopus laevis oocytes injected with cRNA transcribed from phmGluR5d(Hyg+)
# T1 sequence (P41594 21-942 isoform P41594-3): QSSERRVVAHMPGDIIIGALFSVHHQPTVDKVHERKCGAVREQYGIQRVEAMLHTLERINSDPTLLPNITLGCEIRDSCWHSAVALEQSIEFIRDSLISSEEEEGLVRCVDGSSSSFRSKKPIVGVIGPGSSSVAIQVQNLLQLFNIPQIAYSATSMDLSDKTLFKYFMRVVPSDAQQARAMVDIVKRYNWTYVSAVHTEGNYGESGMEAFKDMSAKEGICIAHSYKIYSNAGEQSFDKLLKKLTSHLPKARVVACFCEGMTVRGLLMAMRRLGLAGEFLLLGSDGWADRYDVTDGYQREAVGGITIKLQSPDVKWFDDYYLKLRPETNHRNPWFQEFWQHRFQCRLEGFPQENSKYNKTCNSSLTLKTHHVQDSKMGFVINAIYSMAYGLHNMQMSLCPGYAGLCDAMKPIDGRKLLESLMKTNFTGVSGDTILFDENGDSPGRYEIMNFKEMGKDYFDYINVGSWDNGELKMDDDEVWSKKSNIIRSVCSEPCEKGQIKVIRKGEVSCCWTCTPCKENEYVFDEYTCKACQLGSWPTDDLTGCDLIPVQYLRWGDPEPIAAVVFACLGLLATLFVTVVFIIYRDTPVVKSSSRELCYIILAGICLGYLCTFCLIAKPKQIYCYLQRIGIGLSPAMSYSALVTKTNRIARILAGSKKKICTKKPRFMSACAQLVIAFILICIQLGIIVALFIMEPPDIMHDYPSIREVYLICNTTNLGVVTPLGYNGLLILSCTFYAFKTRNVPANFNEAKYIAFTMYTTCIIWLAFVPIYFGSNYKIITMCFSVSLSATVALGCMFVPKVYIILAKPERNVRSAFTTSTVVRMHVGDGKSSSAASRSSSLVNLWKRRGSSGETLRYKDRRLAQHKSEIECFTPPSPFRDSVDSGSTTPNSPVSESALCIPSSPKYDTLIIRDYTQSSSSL
# Description: This example describes the activation of the novel hmGluRSd splice variant using a Xenopus oocyte expression assay. PhmGluR5d(Hyg+) DNA was linearized by restriction enzyme digestion, and capped sense-strand cRNA was synthesized by T7 RNA polymerase transcription (Ambion Message Machine Kit). In vitro-transcribed RNA was concentrated by ethanol precipitation and the size and integrity of the RNA was assessed on a denaturing agarose gel.
# In vitro-transcribed RNA (˜10 ng) encoding the human mGluR5d receptor was injected into Xenopus Oocytes. Following injection, oocytes were incubated at 16° C. in MBS containing 1 mM CaCl2 for 2 to 7 days prior to electrophysiological recording. Following the incubation, the oocytes were voltage-clamped using standard electrophysiological techniques. […] Activation of the hmGluR5d receptor was detected by increases in the calcium-activated chloride current.
# Test substances were applied by superfusion at a flow rate of about 5 ml/min. Receptor activation was determined by measuring the increase in calcium-activated chloride current (ICl) Increases in ICl were quantified by measuring the peak inward current stimulated by activating agent, relative to the holding current at […].
# hmGluR5d receptor = molecular target: T2, hmGluR5d receptor (Homo sapiens, UniProt P41594); experiment: Increases in intracellular calcium (Fluo3-AM, FLIPR) in transfected HEK293 cells; conditions: hmGluR5d expressed in HEK293 cells, FIG. 4
# T2 construct: The full-length human mGluR5d was then subcloned into the mammalian expression vector pcDNA3.1/Hygro(+) vector; expressed in transfected cells; host or cells: HEK293 cells (ATCC CRL 1573) transfected with phmGluR5d(Hyg+)
# T2 sequence (P41594 21-942 isoform P41594-3): as above
# Description: Human embryonic kidney cells (293, ATCC, CRL 1573) are grown in a routine manner. Cells are plated in 10 cm cell-culture plates in Dulbecco's modified Eagle's medium (D-MEM) containing 10% fetal bovine serum (FBS) and 1× penicillin-streptomycin (Life Technologies) so that they are approximately 70% confluent after an overnight incubation. To prepare DNA for transfection, the plasmid phmGluR5d(Hyg+) is precipitated with ethanol, rinsed and resuspended in sterile water at a concentration of 1 μg/μl. Ten micrograms of the plasmid DNA is incubated with the liposome formulation LipofectAMINE™ (Life Technologies) for 20 minutes in 1.6 mls of serum-free Opti-MEM (Life Technologies). After the room temperature incubation, 6.4 mls of Opti-MEM is added to the transfection mix. This solution is added to the cells which have been rinsed twice with 8 ml washes of Opti-MEM. The cells and transfection mix are incubated at 37° C. for 5 hours, at which time 8 mls of Opti-MEM/20% FBS is added to bring the FBS concentration to 10%. […] Expression of the novel human mGluR5d splice variant of the present invention in clonal cell lines or pools can be assessed by Northern blot analysis of human mGluR5d mRNA or functionally as in the above experiments by assessing increases in intracellular calcium in response to mGluR5 agonists. […]
# [1] = molecular target: T3, hCaR/hmGluR5d chimeric receptor (Homo sapiens, UniProt P41180); experiment: Increases in intracellular calcium (Fluo3-AM, FLIPR) in HEK293 cells expressing the chimeric receptor; conditions: hCaR/hmGluR5d expressed in HEK293 cells, FIG. 5
# T3 construct: expressed in transfected cells; host or cells: HEK293 cells (ATCC CRL 1573) stably transfected with phCaR/hmGluR5d(Hyg+)
# T3 sequence (P41180 with tags, fused parts or gaps): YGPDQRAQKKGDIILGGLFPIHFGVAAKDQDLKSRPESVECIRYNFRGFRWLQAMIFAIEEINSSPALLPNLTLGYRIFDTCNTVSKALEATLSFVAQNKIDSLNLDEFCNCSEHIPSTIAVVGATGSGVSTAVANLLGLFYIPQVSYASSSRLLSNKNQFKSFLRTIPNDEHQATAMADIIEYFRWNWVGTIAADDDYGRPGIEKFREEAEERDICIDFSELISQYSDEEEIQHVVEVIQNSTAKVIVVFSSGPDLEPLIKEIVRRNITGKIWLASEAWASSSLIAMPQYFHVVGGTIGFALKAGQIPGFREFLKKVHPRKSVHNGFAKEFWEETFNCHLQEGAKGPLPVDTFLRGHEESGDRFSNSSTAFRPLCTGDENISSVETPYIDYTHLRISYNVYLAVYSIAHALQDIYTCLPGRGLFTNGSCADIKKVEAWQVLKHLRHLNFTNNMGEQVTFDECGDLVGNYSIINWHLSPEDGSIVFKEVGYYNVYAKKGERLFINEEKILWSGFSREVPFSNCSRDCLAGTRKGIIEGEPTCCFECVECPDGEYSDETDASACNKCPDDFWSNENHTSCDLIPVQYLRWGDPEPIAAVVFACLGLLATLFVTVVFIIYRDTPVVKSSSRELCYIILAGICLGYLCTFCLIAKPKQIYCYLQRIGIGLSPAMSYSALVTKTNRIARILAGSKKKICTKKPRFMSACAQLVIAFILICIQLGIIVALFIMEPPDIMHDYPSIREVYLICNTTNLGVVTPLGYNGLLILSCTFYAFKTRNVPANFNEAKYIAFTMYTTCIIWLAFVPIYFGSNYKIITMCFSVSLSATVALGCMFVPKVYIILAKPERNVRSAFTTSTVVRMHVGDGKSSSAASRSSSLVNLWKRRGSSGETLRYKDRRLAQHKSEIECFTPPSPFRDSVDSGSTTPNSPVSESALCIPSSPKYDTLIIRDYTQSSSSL
# Description: This example provides a method for the production of stably transfected mammalian cell lines expressing the chimeric receptor hCaR/hmGluR5d, but is not meant to be limiting. Human embryonic kidney cells (293, ATCC, CRL 1573) are grown in a routine manner. Cells are plated in 10 cm cell-culture plates in Dulbecco's modified Eagle's medium (D-MEM) containing 10% fetal bovine serum (FBS) and 1×penicillin-streptomycin (Life Technologies) so that they are approximately 70% confluent after an overnight incubation. To prepare DNA for transfection, the plasmid phCaR/hmGluR5d(Hyg+) is precipitated with ethanol, rinsed and resuspended in sterile water at a concentration of 1 μg/μl. Ten micrograms of the plasmid DNA is incubated with the liposome formulation LipofectAMINE™ (Life Technologies) for 20 minutes in 1.6 mls of serum-free Opti-MEM (Life Technologies). […] Expression can also be assessed by Western blot analysis using the commercially available antibody Anti-Rat mGluR5, polyclonal (Upstate Biotechnology).
# The chimeric receptor, hCaR/hmGluR5d, also mediates the stimulation of inositol phosphate (IP)/Ca^2+ signal transduction. […] After an additional 24 hour incubation, cells are loaded with the calcium indicator dye Fluo3-AM and increases in intracellular calcium in response to calcium are measured using an automated fluorescent imaging plate reader (FLIPR). […]
Compound,desensitization of evoked calcium-activated chloride currents (human mGluR5d receptor),functional activation of the receptor (agonist) (hmGluR5d receptor),functional activation of the chimeric receptor (agonist) [1],"increase in calcium-activated chloride current (receptor activation) (human mGluR5d receptor; 100 μM, applied by superfusion, voltage-clamped Xenopus oocytes expressing hmGluR5d)"
"N[C@H](C(=O)O)c1cc(O)cc(O)c1 [DHPG, (S)-3,5-dihydroxyphenylglycine]",only minimally desensitized,functional activation,–,–
calcium,–,–,functional activation,–
N[C@@H](CCC(=O)O)C(=O)O [L-glutamate],only minimally desensitized,–,–,"reversible, oscillatory increases in the calcium-activated chloride current"
